Legend:
rabbit isolated heart = assay: Inotropic effect on rabbit isolated heart (Langendorff) after anoxia; settings: Oryctolagus cuniculus, 10 min, dose 10^-5 gl^-1, 10 minutes after interruption of the anoxic period, increase against controls
Protocol: Rabbit hearts isolated by the Langendorff method were perfused with oxygenized Ringer solution at 38.2° C. The isometric contractions, electrogardiogram and coronary flow were recorded using a "Battaglia-Rangoni" polygraph. By removing the oxygen from the perfusion fluid, metabolic damage was induced in the cardiac muscle, up to an 80% reduction in the cardiac contractile force.
Under these conditions of prolonged anoxia the aerobic glycolysis of the myocardium is slowed down, accompanied by the storage of acid catabolites due to both the accumulation of pyruvic acid and its conversion to lactic acid which cannot be utilized because of the depression of pyridine enzymes, such as LDH (lactodehydrogenase). This has repercussions on the anaerobic glycolysis affecting an ever increasing number of enzymes, accompanied by a progressive and increasingly critical exhaustion of the myocardium. Thus a whole series of cardiac muscle fatigue levels occurs which can be observed by the behavior of the examined parameters, namely the contractile force, coronary flow, heart rate and cardiac rhythm. As soon as the contractile force was reduced by 80%, the perfusion fluid was once again oxygenized either without adding other compounds (controls) or with the addition of the compounds under examination.
In the Table there are shown the percentage value of increase against the controls.

mice [1] = assay: Antiarrhythmic (antifibrillatory) effect, aconitine-induced arrhythmia in mice; assay type: in vivo; settings: Mus musculus, iv, read-out: Antifibrillatory activity, % reduction
Protocol: (c) Antiarrhythmic effect
In order to evaluate the antiarrhythmic activity of the carnitine derivatives of this invention studied with in vivo tests in addition to and in comparison with the currently employed in vitro tests, the method disclosed by Nwangwu et al. (Arch. Int. Pharmacodyn., 1977, 229, 219) was used.
According to this method an aconitine solution is injected into the caudal vein of mice and the onset time of arrhythmia and tachycardia after 2 to 60 minutes from administration of the compounds under examination is recorded.
The antiarrhythmic activity calculated from the increase in the latency time of the onset of the arrhythmias of the treated animals in comparison with the controls, is illustrated in the Table.

[2] = Acute toxicity (LD50) in mice; settings: mouse, in vivo, ip
From the text: (a) Acute toxicity (LD50)
Acute toxicity was investigated by using the method disclosed by Weil C. S. in "Tables for convenient calculation of median-effective dose (LD50 or ED50) and instructions in their use", Biometrics, 249-253, 1952.
The tolerance of the compounds under examination was investigated in mice after administration by the intraperitoneal or oral route. […] (see the Table).

mice [3] = assay: Adrenaline-antagonizing effect in mice; assay type: in vivo, male Albino Swiss mice; settings: Mus musculus, ip, 30 min before adrenaline, mortality checked for 36 hours, read-out: Antiadrenaline activity, % mortality reduction; for responders at 300 mg/kg: dose 300 mg kg^-1 i.p.; for responders at 100 mg/kg: dose 100 mg kg^-1 i.p.; for responders at 50 mg/kg: dose 50 mg kg^-1 i.p.; for responders at 70 mg/kg: dose 70 mg kg^-1 i.p.
Protocol: (d) Adrenaline-antagonizing effect
Groups of ten male Albino Swiss mice, weighing 12-22 g, were intraperitoneally administered either with the esters of the present invention or with saline (control) and, after 30 minutes, with adrenaline (treated) at a dose capable of bringing about death to 100% of the control animals due to ventricular fibrillation and cardiac lesions ensuing from increase in frequency, pressure and oxygen uptake from the myocardium.
Mortality was checked for 36 hours and the effect of the compounds expressed as percentage of surviving animals, is shown in the Table.

**Q.** With `CCOC(C)C(=O)OC(CC(=O)OC(C)C)C[N+](C)(C)C` (centres unmarked) [R = 2-ethoxypropionyl; R' = isopropyl] as the compound, how does the activation at 0.01 µg/mL (rabbit isolated heart) read?
**A.** The activation at 0.01 µg/mL was 50%.

**Q.** And the inhibition in vivo at 50 mg/kg (mice [1])?
**A.** Its inhibition in vivo at 50 mg/kg is 70%.

**Q.** And the LD50 [2]?
**A.** Its LD50 is 1200 mg/kg.

**Q.** What about the responders at 300 mg/kg (mice [3]) of the same compound?
**A.** Its responders at 300 mg/kg is 50%.

**Q.** Which activation at 0.01 µg/mL (rabbit isolated heart) does the source give for `COC(C)C(=O)OC(CC(=O)OC(C)C)C[N+](C)(C)C` (centres unmarked) [R = 2-methoxypropionyl; R' = isopropyl, 2-methoxy propionyl carnitine isopropyl ester] here?
**A.** Its activation at 0.01 µg/mL is 70%.

**Q.** And the inhibition in vivo at 50 mg/kg (mice [1])?
**A.** The inhibition in vivo at 50 mg/kg was 68%.

**Q.** What about the LD50 [2] of the same compound?
**A.** The LD50 was 850 mg/kg.

**Q.** And the responders at 100 mg/kg (mice [3])?
**A.** Its responders at 100 mg/kg is 58%.

**Q.** What does the source list for `CCCCOC(=O)CC(C[N+](C)(C)C)OC(=O)COCC` (centres unmarked) [R = ethoxyacetyl; R' = butyl]?
**A.** activation at 0.01 µg/mL (rabbit isolated heart): 58%; inhibition in vivo at 40 mg/kg (mice [1]): 75%; LD50 [2]: 600 mg/kg; responders at 100 mg/kg (mice [3]): 75%

**Q.** For `CCOCC(=O)OC(CC(=O)OCC)C[N+](C)(C)C` (centres unmarked) [R = ethoxyacetyl; R' = ethyl], which activation at 0.01 µg/mL (rabbit isolated heart) is on record?
**A.** Its activation at 0.01 µg/mL is 68%.

**Q.** What about the inhibition in vivo at 35 mg/kg (mice [1]) of the same compound?
**A.** The inhibition in vivo at 35 mg/kg was 65%.

**Q.** And the LD50 [2]?
**A.** Its LD50 is 600 mg/kg.

**Q.** And the responders at 50 mg/kg (mice [3])?
**A.** Its responders at 50 mg/kg is 50%.

**Q.** For `CCOCC(=O)OC(CC(=O)OCC(C)C)C[N+](C)(C)C` (centres unmarked) [R = ethoxyacetyl; R' = isobutyl, ethoxyacetyl carnitine isobutyl ester], which activation at 0.01 µg/mL (rabbit isolated heart) is on record?
**A.** The activation at 0.01 µg/mL was 70%.

**Q.** And the inhibition in vivo at 10 mg/kg (mice [1])?
**A.** The inhibition in vivo at 10 mg/kg was 70%.

**Q.** What about the LD50 [2] of the same compound?
**A.** The LD50 was 750 mg/kg.

**Q.** What about the responders at 70 mg/kg (mice [3]) of the same compound?
**A.** Its responders at 70 mg/kg is 50%.

**Q.** What does the source list for `CCOCC(=O)OC(CC(=O)OC(C)C)C[N+](C)(C)C` (centres unmarked) [R = ethoxyacetyl; R' = isopropyl]?
**A.** activation at 0.01 µg/mL (rabbit isolated heart): 72%; inhibition in vivo at 50 mg/kg (mice [1]): 70%; LD50 [2]: 700 mg/kg; responders at 100 mg/kg (mice [3]): 60%

**Q.** What does the source list for `CCOCC(=O)OC(CC(=O)OC)C[N+](C)(C)C` (centres unmarked) [R = ethoxyacetyl; R' = methyl]?
**A.** activation at 0.01 µg/mL (rabbit isolated heart): 55%; inhibition in vivo at 150 mg/kg (mice [1]): 90%; LD50 [2]: 1100 mg/kg; responders at 300 mg/kg (mice [3]): 75%

**Q.** Which results are given for `CCCOC(=O)CC(C[N+](C)(C)C)OC(=O)COCC` (centres unmarked) [R = ethoxyacetyl; R' = propyl]?
**A.** activation at 0.01 µg/mL (rabbit isolated heart): 49%; inhibition in vivo at 50 mg/kg (mice [1]): 75%; LD50 [2]: 620 mg/kg; responders at 100 mg/kg (mice [3]): 75%

**Q.** For `CCCCOC(=O)CC(C[N+](C)(C)C)OC(=O)COC` (centres unmarked) [R = methoxyacetyl; R' = butyl], which activation at 0.01 µg/mL (rabbit isolated heart) is on record?
**A.** The activation at 0.01 µg/mL was 55%.

**Q.** And the inhibition in vivo at 40 mg/kg (mice [1])?
**A.** The inhibition in vivo at 40 mg/kg was 75%.

**Q.** What about the LD50 [2] of the same compound?
**A.** Its LD50 is 550 mg/kg.

**Q.** What about the responders at 100 mg/kg (mice [3]) of the same compound?
**A.** The responders at 100 mg/kg was 70%.

**Q.** For `CCOC(=O)CC(C[N+](C)(C)C)OC(=O)COC` (centres unmarked) [R = methoxyacetyl; R' = ethyl], which activation at 0.01 µg/mL (rabbit isolated heart) is on record?
**A.** The activation at 0.01 µg/mL was 58%.

**Q.** What about the inhibition in vivo at 50 mg/kg (mice [1]) of the same compound?
**A.** The inhibition in vivo at 50 mg/kg was 70%.

**Q.** And the LD50 [2]?
**A.** The LD50 was 550 mg/kg.

**Q.** What about the responders at 70 mg/kg (mice [3]) of the same compound?
**A.** Its responders at 70 mg/kg is 70%.

**Q.** With `COCC(=O)OC(CC(=O)OCC(C)C)C[N+](C)(C)C` (centres unmarked) [R = methoxyacetyl; R' = isobutyl, methoxyacetyl carnitine isobutyl ester] as the compound, how does the activation at 0.01 µg/mL (rabbit isolated heart) read?
**A.** The activation at 0.01 µg/mL was 79%.

**Q.** And the inhibition in vivo at 75 mg/kg (mice [1])?
**A.** The inhibition in vivo at 75 mg/kg was 85%.

**Q.** What about the LD50 [2] of the same compound?
**A.** The LD50 was 690 mg/kg.

**Q.** What about the responders at 300 mg/kg (mice [3]) of the same compound?
**A.** Its responders at 300 mg/kg is 60%.

**Q.** For `COCC(=O)OC(CC(=O)OC(C)C)C[N+](C)(C)C` (centres unmarked) [R = methoxyacetyl; R' = isopropyl], which activation at 0.01 µg/mL (rabbit isolated heart) is on record?
**A.** The activation at 0.01 µg/mL was 55%.

**Q.** And the inhibition in vivo at 50 mg/kg (mice [1])?
**A.** The inhibition in vivo at 50 mg/kg was 80%.

**Q.** And the LD50 [2]?
**A.** Its LD50 is 800 mg/kg.

**Q.** What about the responders at 50 mg/kg (mice [3]) of the same compound?
**A.** Its responders at 50 mg/kg is 75%.

**Q.** Which activation at 0.01 µg/mL (rabbit isolated heart) does the source give for `COCC(=O)OC(CC(=O)OC)C[N+](C)(C)C` (centres unmarked) [R = methoxyacetyl; R' = methyl] here?
**A.** The activation at 0.01 µg/mL was 72%.

**Q.** And the inhibition in vivo at 300 mg/kg (mice [1])?
**A.** The inhibition in vivo at 300 mg/kg was 75%.

**Q.** And the LD50 [2]?
**A.** Its LD50 is 1200 mg/kg.

**Q.** What about the responders at 450 mg/kg (mice [3]; dose 450 mg kg^-1 i.p.) of the same compound?
**A.** Its responders at 450 mg/kg is 70%.

**Q.** Which activation at 0.01 µg/mL (rabbit isolated heart) does the source give for `CCCOC(=O)CC(C[N+](C)(C)C)OC(=O)COC` (centres unmarked) [R = methoxyacetyl; R' = propyl] here?
**A.** The activation at 0.01 µg/mL was 78%.

**Q.** And the inhibition in vivo at 50 mg/kg (mice [1])?
**A.** The inhibition in vivo at 50 mg/kg was 100%.

**Q.** What about the LD50 [2] of the same compound?
**A.** The LD50 was 650 mg/kg.

**Q.** And the responders at 50 mg/kg (mice [3])?
**A.** Its responders at 50 mg/kg is 75%.

— patent publication US4551477A, “Esters of alkoxy-acylderivatives of carnitine and pharmaceutical compositions containing same” (Sigma-Tau Industrie Farmaceutiche Riunite S.P.A., priority 1974, dated 1985)
